Where “and” joins values, the source holds several entries; their conditions need not be identical. Equal values may be shown once. Read-outs that look alike come from different tables or passages of the source. Blank lines part the entries; values can stand above or below the molecule they belong to.
What was measured:
[1] = ~4 months at ambient conditions
[2] = potassium laurate solubility in various solvents (solvent added dropwise under sonication); type: physicochemical; settings: thermodynamic from solid
Description: In order to select the reaction solvents and their optimized volumes, the solubility of potassium laurate in various solvents was checked by adding solvent to dissolve the solids under sonication. A vial was charged with potassium laurate (˜100 mg) and then solvent was added dropwise under sonication. The potassium laurate could not be dissolved with most solvents (200 vol.).

HPLC Results Glycopyrronium (Expt. 1A: Me-THF Solution at RT over weekend): 87.72 AUC % and 87.72% AUC %
HPLC Results Glycopyrronium (Expt. 1B: Me-THF Solution at 50° C. over weekend, Bottom layer): 49.47% AUC %
HPLC Results Glycopyrronium (Expt. 1B: Me-THF Solution at 50° C. over weekend, Top layer): 57 AUC % and 57.13% AUC %
HPLC Results Glycopyrronium (Expt. 2A: Me-THF Solution in the presence of Lauric Acid at RT over weekend): 89.44% AUC %
HPLC Results Glycopyrronium (Expt. 2B: Me-THF Solution in the presence of Lauric Acid at 50° C. over weekend, Bottom layer): 65.60% AUC %
HPLC Results Glycopyrronium (Expt. 2B: Me-THF Solution in the presence of Lauric Acid at 50° C. over weekend, Top layer): 69.58% AUC %
SMILES: C[N+]1(C)CCC(OC(=O)C(O)(c2ccccc2)C2CCCC2)C1 (centres unmarked) [glycopyrronium laurate]

degradation over time [1]: degradation was observed
SMILES: C[N+]1(C)CCC(OC(=O)C(O)(c2ccccc2)C2CCCC2)C1 (centres unmarked) [glycopyrronium stearate]

SMILES: CCCCCCCCCCCC(=O)[O-].[K+] [potassium laurate]
solubility ([2]; organic solvent or mixture, Acetone, 50° C.): < 5000 µg/mL
solubility ([2]; organic solvent or mixture, Acetone, room temperature, read-out: potassium laurate solubility At Room Temperature): < 5000 µg/mL
solubility ([2]; organic solvent or mixture, Butyl Acetate, 50° C.): < 5000 µg/mL
solubility ([2]; organic solvent or mixture, Butyl Acetate, room temperature, read-out: potassium laurate solubility At Room Temperature): < 5000 µg/mL
solubility ([2]; organic solvent or mixture, Ethanol, room temperature, read-out: potassium laurate solubility At Room Temperature): ~14000 µg/mL
solubility ([2]; organic solvent or mixture, Ethyl Acetate, 50° C.): < 5000 µg/mL
solubility ([2]; organic solvent or mixture, Ethyl Acetate, room temperature, read-out: potassium laurate solubility At Room Temperature): < 5000 µg/mL
solubility ([2]; organic solvent or mixture, IPA, 50° C.): < 5000 µg/mL
solubility ([2]; organic solvent or mixture, IPA, room temperature, read-out: potassium laurate solubility At Room Temperature): < 5000 µg/mL
solubility ([2]; organic solvent or mixture, Isopropyl Acetate, 50° C.): < 5000 µg/mL
solubility ([2]; organic solvent or mixture, Isopropyl Acetate, room temperature, read-out: potassium laurate solubility At Room Temperature): < 5000 µg/mL
solubility ([2]; organic solvent or mixture, MEK, 50° C.): < 5000 µg/mL
solubility ([2]; organic solvent or mixture, MEK, room temperature, read-out: potassium laurate solubility At Room Temperature): < 5000 µg/mL
solubility ([2]; organic solvent or mixture, MIBK, 50° C.): < 5000 µg/mL
solubility ([2]; organic solvent or mixture, MIBK, room temperature, read-out: potassium laurate solubility At Room Temperature): < 5000 µg/mL
solubility ([2]; organic solvent or mixture, Methanol, room temperature, read-out: potassium laurate solubility At Room Temperature): ~50000 µg/mL
solubility ([2]; organic solvent or mixture, Methyl Acetate, 50° C.): < 5000 µg/mL
solubility ([2]; organic solvent or mixture, Methyl Acetate, room temperature, read-out: potassium laurate solubility At Room Temperature): < 5000 µg/mL
solubility ([2]; Water, room temperature, read-out: potassium laurate solubility At Room Temperature): ~138000 µg/mL

From US10519109B2, “Glycopyrronium fatty acid salts and methods of making same” (QAAM PHARMACEUTICALS, LLC, priority 2015, dated 2019)
